Where two headings read alike, the source gives them in different places.
How the values were obtained:
[1] = biological target: T1, p75^NTR receptors (PC12 cells) (Rattus norvegicus, UniProt P07174); test: Basic screening assay: binding of 125I-BDNF to PC12 cells; details: read-out: BDNF Activity % Maximal Binding
T1 construct: endogenous in cells; host or cells: PC12 cells
T1 sequence (P07174 30-425): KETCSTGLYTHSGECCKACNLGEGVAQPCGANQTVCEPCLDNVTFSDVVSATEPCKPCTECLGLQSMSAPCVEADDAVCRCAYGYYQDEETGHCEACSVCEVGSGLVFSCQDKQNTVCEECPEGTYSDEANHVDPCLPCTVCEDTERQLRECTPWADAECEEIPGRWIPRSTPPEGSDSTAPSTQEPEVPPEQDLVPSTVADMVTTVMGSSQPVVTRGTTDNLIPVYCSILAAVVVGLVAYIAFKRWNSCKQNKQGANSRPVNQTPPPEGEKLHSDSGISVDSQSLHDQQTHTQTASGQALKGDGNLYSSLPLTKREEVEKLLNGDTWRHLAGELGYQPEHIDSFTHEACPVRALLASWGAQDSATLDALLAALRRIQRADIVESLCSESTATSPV
T1 sequence (P23560 129-247 partner): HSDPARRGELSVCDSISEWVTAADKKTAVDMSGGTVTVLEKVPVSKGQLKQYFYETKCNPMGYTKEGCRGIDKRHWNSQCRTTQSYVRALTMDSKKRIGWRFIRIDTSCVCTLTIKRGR
How it was run: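 4×10^6 PC12 cells incubated 2 h at 4° C, rotating, with 0.5 nM ^125I-BDNF (final) and compound at 50 μM, in duplicate or more. Bound ligand separated through 10% glycerol by centrifugation and counted by gamma counter; specific binding is Bmax minus NSB; inhibitors followed up for EC50.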

[2] = test system: p75^NTR receptors (PC12 cells); test: Basic screening assay: binding of 125I-NGF to PC12 cells; details: test compound 50 μM, 0.5 nM 125I-NGF, PC12 cells, 2 h at 4° C., specific binding as percent of control
How it was run: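 Inhibition of 0.5 nM 125I-NGF binding to p75NTR on PC12 cells was measured with compounds at 50 μM during 2 h rotation at 4° C. Cell-bound radioactivity from glycerol-cushion centrifugation was gamma-counted, giving NSB-corrected binding as % of control specific binding.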

[3] = Table 1, test compound 50 μM, 0.5 nM 125I-BDNF, PC12 cells, 2 h at 4° C., specific binding as percent of control
[4] = Table 4, test compound 50 μM, 0.5 nM 125I-BDNF, PC12 cells, 2 h at 4° C., specific binding as percent of control

Row | Compound | activity at 50 µM [1, 3] [%] | NGF Activity % Maximal Binding ([2]; Table 1) | activity at 50 µM [1, 4] [%] | NGF Activity % Maximal Binding ([2]; Table 4) | also measured
1 | COC(=O)CN1C(=O)S/C(=C\c2ccc(-c3ccc([N+](=O)[O-])cc3)o2)C1=O [Compound 50, {5-[5-(4-Nitrophenyl)furan-2-ylmethylene]-2,4-dioxo-thiazolidin-3-yl}-acetic acid methyl ester] | 30 to 40 | * (50 < *) |  |  | 
2 | Cc1cc(-c2ccc(C=C3C(=O)NC(=S)NC3=O)o2)cc([N+](=O)[O-])c1C [Compound 25, 5-[5-(3,4-Dimethyl-5-nitrophenyl)furan-2-ylmethylene]-2-thioxo-dihydro-pyrimidine-4,6-dione] |  | * (50 < *) |  |  | activity at 50 µM [1]: 0 to 10%
3 | COc1cc([N+](=O)[O-])ccc1-c1ccc(/C=C2\SC(=S)NC2=O)o1 [Compound 101, 5-[5-(2-Methoxy-4-nitrophenyl)furan-2-ylmethylene]-2-thioxo-thiazolidin-4-one] |  |  | > 50 | * (50 < *) | 
4 | CCOC(=O)CN1C(=O)S/C(=C/c2ccc(-c3ccc(C(=O)O)c(Cl)c3)o2)C1=O [Compound 24, 2-Chloro-4-[5-(3-ethoxycarbonylmethyl-2,4-dioxo-thiazolidin-5-ylidenemethyl)furan-2-yl]benzoic acid] | 0 to 10 | * (50 < *) |  |  | 
5 | Cc1cc(C(=O)O)ccc1-c1ccc(/C=C2\C(=O)NC(=O)N(c3ccccc3F)C2=O)o1 [Compound 66, 4-{5-[1-(2-Fluorophenyl)-2,4,6-trioxo-tetrahydro-pyrimidin-5-ylidenemethyl]furan-2-yl}-3-methylbenzoic acid] |  |  |  |  | activity at 50 µM [1]: 0 to 10%; NGF Activity % Maximal Binding ([2]; Table 2): XXX (20 < XXX < 30)
6 | CCCC(C(=O)O)N1C(=O)C(=Cc2ccc(-c3ccc([N+](=O)[O-])cc3)o2)SC1=S (stereo not shown) [Compound 52, 2-{5-[5-(4-Nitrophenyl)furan-2-ylmethylene]-4-oxo-2-thioxo-thiazolidin-3-yl}-pentanoic acid] | 30 to 40 | * (50 < *) |  |  | 
7 | COC(=O)c1cccc(-c2ccc(C=C3C(=O)NC(=S)NC3=O)o2)c1 [Compound 107, 3-[5-(4,6-Dioxo-2-thioxo-tetrahydro-pyrimidin-5-ylidenemethyl)furan-2-yl]benzoic acid methyl ester] |  |  |  | * (50 < *) | activity at 50 µM [1]: > 50%
8 | O=C1C(=Cc2ccc(-c3ccc([N+](=O)[O-])cc3)o2)SC(=S)N1Cc1cccnc1 [Compound 59, 5-[5-(4-Nitrophenyl)furan-2-ylmethylene]-3-pyridin-3-ylmethyl-2-thioxo-thiazolidin-4-one] | 40 to 50 | * (50 < *) |  |  | 
9 | CCOC(=O)CN1C(=O)S/C(=C/c2ccc(-c3cc(C(=O)O)ccc3C)o2)C1=O [Compound 21, 3-[5-(3-Ethoxycarbonylmethyl-2,4-dioxo-thiazolidin-5-ylidenemethyl)furan-2-yl]-4-methylbenzoic acid] | 0 to 10 | * (50 < *) |  |  | 
10 | O=C1NC(=O)C(=Cc2ccc(-c3ccc([N+](=O)[O-])cc3)o2)C(=O)N1 [Compound 26, 5-[5-(4-Nitrophenyl)furan-2-ylmethylene]-pyrimidine-2,4,6-trione] |  | * (50 < *) |  |  | activity at 50 µM [1]: 0 to 10%
11 | COCCN1C(=O)C(=Cc2ccc(-c3ccc([N+](=O)[O-])cc3)o2)SC1=S [Compound 120, 3-(2-Methoxy-ethyl)-5-[5-(4-nitrophenyl)furan-2-ylmethylene]-2-thioxo-thiazolidin-4-one] |  |  | > 50 | * (50 < *) | 
12 | Cc1cccc(N2NC(=O)C(=Cc3ccc(-c4cccc([N+](=O)[O-])c4)o3)C2=O)c1 [Compound 140, 4-[5-(3-Nitrophenyl)furan-2-ylmethylene]-1-m-tolyl-pyrazolidine-3,5-dione] |  |  | > 50 | * (50 < *) | 
13 | COC(=O)C(C)N1C(=O)S/C(=C/c2ccc(-c3ccc(C)c([N+](=O)[O-])c3)o2)C1=O (stereo not shown) [Compound 64, 2-{5-[5-(4-Methyl-3-nitrophenyl)furan-2-ylmethylene]-2,4-dioxo-thiazolidin-3-yl}-propionic acid methyl ester] | 40 to 50 | * (50 < *) |  |  | 
14 | CC1=NN(c2ccc(F)cc2)C(=O)/C1=C\c1ccc(-c2ccc(C(=O)O)cc2)o1 [Compound 49, 4-{5-[1-(4-Fluorophenyl)-3-methyl-5-oxo-1,5-dihydro-pyrazol-4-ylidenemethyl]furan-2-yl}benzoic acid] | 30 to 40 | * (50 < *) |  |  | 
15 | COC(=O)c1ccc(-c2ccc(/C=C3\C(=O)NC(=O)N(Cc4ccccc4)C3=O)o2)cc1 [Compound 32, 4-[5-(1-benzyl-2,4,6-trioxo-tetrahydro-pyrimidin-5-ylidenemethyl)furan-2-yl]benzoic acid methyl ester] |  | * (50 < *) |  |  | activity at 50 µM [1]: 10 to 20%
16 | O=C1NC(=S)S/C1=C/c1ccc(-c2ccc([N+](=O)[O-])cc2Br)o1 [Compound 100, 5-[5-(2-Bromo-4-nitrophenyl)furan-2-ylmethylene]-2-thioxo-thiazolidin-4-one] |  |  | > 50 | * (50 < *) | 
17 | O=C1NC(=S)N/C1=C/c1ccc(-c2ccc([N+](=O)[O-])cc2Cl)o1 [Compound 47, 5-[5-(2-Chloro-4-nitrophenyl)furan-2-ylmethylene]-2-thioxo-imidazolidin-4-one] | 30 to 40 | * (50 < *) |  |  | 
18 | COc1ccc(-c2ccc(C=C3C(=O)NC(=S)NC3=O)o2)cc1[N+](=O)[O-] [Compound 8, 5-[5-(4-Methoxy-3-nitrophenyl)furan-2-ylmethylene]-2-thioxo-dihydro-pyrimidine-4,6-dione] |  | * (50 < *) |  |  | activity at 50 µM [1]: 0 to 10%
19 | O=C1C(=Cc2ccc(-c3cccc([N+](=O)[O-])c3)o2)SC(=S)N1CCS(=O)(=O)O [Compound 143, 2-{5-[5-(3-Nitrophenyl)furan-2-ylmethylene]-4-oxo-2-thioxo-thiazolidin-3-yl}-ethanesulfonic acid] |  |  | > 50 | * (50 < *) | 
20 | O=C1NN(c2ccc(F)cc2)C(=O)C1=Cc1ccc(-c2ccc([N+](=O)[O-])cc2)o1 [Compound 119, 1-(4-Fluorophenyl)-4-[5-(4-nitrophenyl)furan-2-ylmethylene]-pyrazolidine-3,5-dione] |  |  | > 50 | * (50 < *) | 
21 | O=C(O)c1ccc(-c2ccc(/C=C3/NC(=O)N(Cc4ccccc4F)C3=O)o2)cc1Cl [Compound 27, 2-Chloro-4-{5-[1-(2-fluorobenzyl)-2,5-dioxo-imidazolidin-4-ylidenemethyl]furan-2-yl}benzoic acid] | 0 to 10 | * (50 < *) |  |  | 
22 | Cc1cc(-c2ccc(C=C3NC(=S)NC3=O)o2)ccc1[N+](=O)[O-] [Compound 95, 5-[5-(3-Methyl-4-nitrophenyl)furan-2-ylmethylene]-2-thioxo-imidazolidin-4-one] |  |  | > 50 | * (50 < *) | 
23 | O=C1NC(=S)S/C1=C/c1ccc(-c2ccc(Cl)c([N+](=O)[O-])c2)o1 [Compound 51, 5-[5-(4-Chloro-3-nitrophenyl)furan-2-ylmethylene]-2-thioxo-thiazolidin-4-one] | 30 to 40 | * (50 < *) |  |  | 
